Results from US10294202B2, “Pyrrolidinones as herbicides” (FMC Corporation, priority 2013, dated 2019).

Tests used:
[1] = test system: barnyardgrass; assay: Test A pre-/postemergence herbicide test; type: in vivo, Echinochloa crus-galli
Summary of the method: (§1)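 Both application timings used compounds in a non-phytotoxic solvent plus surfactant. Pre-emergence: soil sprayed directly after seeding into loam/sand. Post-emergence: foliage of 2–10 cm seedlings (1–2 leaves) sprayed. Injury rated ~10 days later, 0–100.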

[2] = test system: kochia; assay: Test A pre-/postemergence herbicide test; type: in vivo, Kochia scoparia; conditions: for Plant response rating, Kochia: 0 to 100 scale
Text: (§2) Seeds of plant species selected from bamyardgrass (Echinochloa crus-galli), kochia (Kochia scoparia), ragweed (common ragweed, Ambrosia elatior), ryegrass, Italian (Italian ryegrass, Lolium multiflorum), crabgrass, large (large crabgrass Digitaria sanguinalis), giant foxtail (Setaria faberii), morningglory (Ipomoea spp.), pigweed (Amaranthus retroflexus), velvetleaf (Abutilon theophrasti), wheat (Triticum aestivum), and corn (Zea mays) were planted into a blend of loam soil and sand and treated preemergence with a directed soil spray using test chemicals formulated in a non-phytotoxic solvent mixture which included a surfactant. At the same time, plants selected from these crop and weed species and also blackgrass (Alopecurus myosuroides), and galium (catchweed bedstraw, Galium aparine) were planted in pots containing the same blend of loam soil and sand and treated with postemergence applications of test chemicals formulated in the same manner. Plants ranged in height from 2 to 10 cm and were in the one- to two-leaf stage for the postemergence treatment. Treated plants and untreated controls were maintained in a greenhouse for approximately 10 days, after which time all treated plants were compared to untreated controls and visually evaluated for injury. Plant response ratings, summarized in Table A, are based on a 0 to 100 scale where 0 is no effect and 100 is complete control. A dash (-) response means no test result.

[3] = test system: ragweed; assay: Test A pre-/postemergence herbicide test; type: in vivo, Ambrosia elatior; conditions: for Plant response rating, Ragweed: 0 to 100 scale
Text: as §2

[4] = test system: ryegrass, Italian; assay: Test A pre-/postemergence herbicide test; type: in vivo, Lolium multiflorum; conditions: for Plant response rating, Ryegrass, Italian: 0 to 100 scale
Text: as §2

[5] = test system: giant foxtail; assay: Test A pre-/postemergence herbicide test; type: in vivo, Setaria faberii; conditions: for Plant response rating, Foxtail, Giant: 0 to 100 scale
Summary of the method: as §1

[6] = test system: pigweed; assay: Test A pre-/postemergence herbicide test; type: in vivo, Amaranthus retroflexus; conditions: for Plant response rating, Pigweed: 0 to 100 scale
Summary of the method: as §1

[7] = test system: wheat; assay: Test A pre-/postemergence herbicide test; type: in vivo, Triticum aestivum; conditions: Postemergence; for Plant response rating, Wheat: 125 g ai/ha, 0 to 100 scale; for Wheat plant response rating (0 to 100 scale, 0 is no effect, 100 is complete control): 500 g ai/ha
Summary of the method: as §1

[8] = test system: corn; assay: Test A pre-/postemergence herbicide test; type: in vivo, Zea mays; conditions: Postemergence; for Plant response rating, Corn: 125 g ai/ha, 0 to 100 scale; for Corn plant response rating (0 to 100 scale, 0 is no effect, 100 is complete control): 500 g ai/ha
Summary of the method: as §1

[9] = test system: blackgrass; assay: Test A postemergence herbicide test; type: in vivo, Alopecurus myosuroides; conditions: for Plant response rating, Blackgrass: 125 g ai/ha, 0 to 100 scale; for Blackgrass plant response rating (0 to 100 scale, 0 is no effect, 100 is complete control): 500 g ai/ha
Text: (§3) At the same time, plants selected from these crop and weed species and also blackgrass (Alopecurus myosuroides), and galium (catchweed bedstraw, Galium aparine) were planted in pots containing the same blend of loam soil and sand and treated with postemergence applications of test chemicals formulated in the same manner. Plants ranged in height from 2 to 10 cm and were in the one- to two-leaf stage for the postemergence treatment. Treated plants and untreated controls were maintained in a greenhouse for approximately 10 days, after which time all treated plants were compared to untreated controls and visually evaluated for injury. Plant response ratings, summarized in Table A, are based on a 0 to 100 scale where 0 is no effect and 100 is complete control. A dash (-) response means no test result.

[10] = test system: galium; assay: Test A postemergence herbicide test; type: in vivo, Galium aparine; conditions: for Plant response rating, Galium: 125 g ai/ha, 0 to 100 scale; for Galium plant response rating (0 to 100 scale, 0 is no effect, 100 is complete control): 500 g ai/ha
Text: as §3

[11] = 125 g ai/ha, visual rating, 0 to 100 scale, 0 no effect, 100 complete control, approximately 10 days, preemergence
[12] = preemergence, 500 g ai/ha, 0 to 100 scale (0 no effect, 100 complete control)
[13] = 125 g ai/ha, visual rating, 0 no effect, 100 complete control, approximately 10 days, preemergence
[14] = Postemergence, 125 g ai/ha, 0 no effect, 100 complete control
[15] = 0 no effect, 100 complete control
[16] = Postemergence, 125 g ai/ha, 0 to 100 scale, 0 is no effect, 100 is complete control
[17] = Postemergence, 125 g ai/ha, 0 is no effect, 100 is complete control
[18] = preemergence, 500 g ai/ha, 0 is no effect and 100 is complete control
[19] = 0 is no effect, 100 is complete control

| Compound | Plant response rating, Barnyardgrass [1, 11] | Barnyardgrass plant response rating (0 to 100 scale, 0 is no effect, 100 is complete control) ([1]; Postemergence, 500 g ai/ha) | Plant response rating, Barnyardgrass [1, 12] | Plant response rating, Kochia [2, 13] | Kochia plant response rating (0 to 100 scale, 0 is no effect, 100 is complete control) ([2]; Postemergence, 500 g ai/ha) | Plant response rating, Ragweed [3, 13] | Ragweed plant response rating (0 to 100 scale, 0 is no effect, 100 is complete control) ([3]; Postemergence, 500 g ai/ha) | Plant response rating, Ryegrass, Italian [4, 13] | Ryegrass, Italian plant response rating (0 to 100 scale, 0 is no effect, 100 is complete control) ([4]; Postemergence, 500 g ai/ha) | Plant response rating, Foxtail, Giant [5, 13] | Foxtail, Giant plant response rating (0 to 100 scale, 0 is no effect, 100 is complete control) ([5]; Postemergence, 500 g ai/ha) | Plant response rating, Foxtail, Giant ([5]; preemergence, 500 g ai/ha) | Plant response rating, Pigweed [6, 13] | Pigweed plant response rating (0 to 100 scale, 0 is no effect, 100 is complete control) ([6]; Postemergence, 500 g ai/ha) | Wheat plant response rating (0 to 100 scale, 0 is no effect, 100 is complete control) [7] | Corn plant response rating (0 to 100 scale, 0 is no effect, 100 is complete control) [8] | Blackgrass plant response rating (0 to 100 scale, 0 is no effect, 100 is complete control) [9] | Galium plant response rating (0 to 100 scale, 0 is no effect, 100 is complete control) [10] | Plant response rating, Barnyardgrass [1, 16] | Plant response rating, Kochia [2, 17] | other results |
| --- | --- | --- | --- | --- | --- | --- | --- | --- | --- | --- | --- | --- | --- | --- | --- | --- | --- | --- | --- | --- | --- |
| Cc1ccc(C2CNC(=O)C2C(=O)Nc2ccc(F)cc2F)cc1F (racemic) [Compound 145] | 80 | 90 | 90 | 0 | 20 | 0 | 20 | 0 | 0 | 70 | 70 | 90 | 0 | 0 | 0 | 0 | 30 | 50 | – | – | Plant response rating, Barnyardgrass ([1]; Postemergence, 125 g ai/ha, 0 to 100 scale, 0 no effect, 100 complete control): 70; Plant response rating, Kochia [2, 14]: 0; Plant response rating, Kochia ([2]; preemergence, 500 g ai/ha): 0; Plant response rating, Ragweed [3, 14]: 0; Plant response rating, Ragweed ([3]; preemergence, 500 g ai/ha): 0; Plant response rating, Ryegrass, Italian [4, 14]: 0; Plant response rating, Ryegrass, Italian ([4]; preemergence, 500 g ai/ha): 0; Plant response rating, Foxtail, Giant [5, 14]: 40; Plant response rating, Pigweed [6, 14]: 0; Plant response rating, Pigweed ([6]; preemergence, 500 g ai/ha): 0; Plant response rating, Wheat [7, 15]: 0; Plant response rating, Corn [8, 15]: 0; Plant response rating, Blackgrass [9, 15]: 0; Plant response rating, Galium [10, 15]: 20 |
| O=C1NCC(c2cc(F)cc(F)c2)C1C(=O)Nc1ccc(F)cc1F (racemic) [Compound 156] | 90 | 80 | 90 | 20 | 20 | 0 | 30 | 0 | 30 | 90 | 80 | 90 | 0 | 20 | 40 | 30 | 20 | 30 | 80 | 0 | Plant response rating, Kochia [2, 18]: 40; Plant response rating, Ragweed [3, 17]: 0; Plant response rating, Ragweed [3, 18]: 0; Plant response rating, Ryegrass, Italian [4, 17]: 20; Plant response rating, Ryegrass, Italian [4, 18]: 30; Plant response rating, Foxtail, Giant [5, 17]: 80; Plant response rating, Pigweed [6, 17]: 0; Plant response rating, Pigweed [6, 18]: 0; Plant response rating, Wheat [7, 19]: 0; Plant response rating, Corn [8, 19]: 20; Plant response rating, Blackgrass [9, 19]: 0; Plant response rating, Galium [10, 19]: 20 |
| Cc1cccc(NC(=O)C2C(=O)NCC2c2cccc(C(F)(F)F)c2)c1F (racemic) [Compound 184] | 70 | 80 | – | 0 | 0 | 0 | 0 | 0 | 20 | 90 | 80 | – | 0 | 0 | 40 | 20 | 20 | 20 | 70 | 0 | Plant response rating, Barnyardgrass ([1]; preemergence, 500 g ai/ha, 0 to 100 scale, 0 is no effect and 100 is complete control): 90; Plant response rating, Kochia [2, 18]: 20; Plant response rating, Ragweed [3, 17]: 0; Plant response rating, Ragweed [3, 18]: 0; Plant response rating, Ryegrass, Italian [4, 17]: 0; Plant response rating, Ryegrass, Italian [4, 18]: 0; Plant response rating, Foxtail, Giant [5, 17]: 70; Plant response rating, Foxtail, Giant [5, 18]: 90; Plant response rating, Pigweed [6, 17]: 0; Plant response rating, Pigweed [6, 18]: 0; Plant response rating, Wheat [7, 19]: 0; Plant response rating, Corn [8, 19]: 0; Plant response rating, Blackgrass [9, 19]: 0; Plant response rating, Galium [10, 19]: 0 |
